Data published in US9012611B2, “Use of 3,8,12,14, 17,20-oxo-substituted pregnene glycosides in the preparation of healthcare products, food additives and pharmaceuticals for the inhibition of appetite” (Institute of Materia Medica, Chinese Academy of Sciences, priority 2010, dated 2015).

Legend:
[1] = test system: female Wistar rat; experiment: Animal test in vivo: average food consumption (appetite inhibition); conditions: crude extract 300 mg/kg; for Average food consumptions: Table 1, positive control 15 mg/kg, others 50 mg/kg; for average food consumptions compared with the blank control group (in words): during the administration of the drugs, pure glycosides 50 mg/kg
Experimental: (§1) 6-7 weeks-old female Wistar rat (purchased from Shanghai Laboratory Animal Center of Chinese Academy of Sciences)(weight: 110-150 g) was raised alone in suspended metal cage. After the experimental rat was obtained, it was checked to make sure whether they were abnormal or had obvious disease signs. The rat can freely obtain the drinking-water and feed for rodent (RM1(E)AQC). The feeding cage was controlled to receive 12 h illumination (from 07:00 to 19:00) and to be in a dark environment for 12 h, and the room temperature and relative humidity were controlled to be 21±3° C. and 55±15% respectively and not to deviate the upper and lower limit. The rats were randomly divided into groups depending on the body weight according to random number table to make the average weight in each group are approximately equal. Before the test, the rats were pre-trained suitably for one week (from −7th day to −1st day) during which the consumptions of feed and drinking water were recorded.
(§2) Each group of drug to be tested, positive control group, and blank control group consisted of 5 rats, respectively. The tested drug and positive control drug were mixed with wheaten starch before the administration and formulated to suspension with required doses according to 10 mL/kg of administration volume. The positive control drug was sibutramine hydrochloride and the administration dosage was 15 mg/kg body weight. In the blank control group, only equal amount of starch was used to formulate suspension for administration by […] in a same volume. The administration time is the 1st day, 2nd day and 3rd day. The body weight of the rat, the consumption of the feed (the weight of the feeding hopper) and consumption of the drinking water (bottle weight) were recorded from the −7th day to the 7th day.

[2] = Animal test in vivo: average body weight; parameters: species or system rat; conditions: crude extract 300 mg/kg; for Average body weight: Table 3, positive control 15 mg/kg, others 50 mg/kg; for body weight compared with the blank control group (in words): during the administration of the drugs, pure glycosides 50 mg/kg
Experimental: as §1, §2

[3] = 4th day (after administration on days 1-3)
[4] = 5th day (after administration on days 1-3)
[5] = 6th day (after administration on days 1-3)
[6] = 7th day (after administration on days 1-3)
[7] = −1st day (before administration)
[8] = −2nd day (before administration)
[9] = −3rd day (before administration)
[10] = −4th day (before administration)
[11] = −5th day (before administration)
[12] = −6th day (before administration)
[13] = −7th day (before administration)

SMILES	Average food consumptions ([1]; 1st day (administration day))	Average food consumptions ([1]; 2nd day (administration day))	Average food consumptions ([1]; 3rd day (administration day))	Average food consumptions [1, 3]	Average food consumptions [1, 4]	Average food consumptions [1, 5]	Average food consumptions [1, 6]	average food consumptions compared with the blank control group (in words) [1]	Average food consumptions [1, 7]	Average food consumptions [1, 8]	Average food consumptions [1, 9]	Average food consumptions [1, 10]	Average food consumptions [1, 11]	Average food consumptions [1, 12]	Average food consumptions [1, 13]	Average body weight ([2]; 1st day (administration day))	Average body weight ([2]; 2nd day (administration day))	Average body weight ([2]; 3rd day (administration day))	Average body weight [2, 3]	Average body weight [2, 4]	also measured
CO[C@H]1C[C@H](O[C@H]2[C@@H](OC)C[C@H](O[C@H]3CC[C@@]4(C)C(=CC[C@]5(O)[C@@H]4C[C@@H](OC(=O)/C=C(\C)C(C)C)[C@@]4(C)[C@]5(O)CC[C@@]4(O)C(C)=O)C3)O[C@@H]2C)O[C@@H](C)[C@H]1O[C@H]1C[C@H](OC)[C@H](O[C@H]2C[C@@H](OC)[C@@H](O[C@@H]3O[C@H](CO)[C@@H](O)[C@H](O)[C@H]3O)[C@H](C)O2)[C@@H](C)O1 [Wilfoside C1G, wilfoside C1G]	14.4 g	12.4 g	14.4 g	14.8 g	17.6 g	12.4 g	15.2 g	no great differences	14 g	13.6 g	14.8 g	15.2 g	13.6 g	13.6 g	13.6 g	163.6 g	163.2 g	165.2 g	166.4 g	170.4 g	Average body weight [2, 5]: 169.6 g; Average body weight [2, 6]: 174.4 g; body weight compared with the blank control group (in words) [2]: no great differences; Average body weight [2, 7]: 162.8 g; Average body weight [2, 8]: 157.6 g; Average body weight [2, 9]: 155.6 g; Average body weight [2, 10]: 153.2 g; Average body weight [2, 11]: 151.2 g; Average body weight [2, 12]: 147.6 g; Average body weight [2, 13]: 145.6 g
CO[C@H]1C[C@H](O[C@H]2[C@@H](OC)C[C@H](O[C@H]3CC[C@@]4(C)C(=CC[C@]5(O)[C@@H]4C[C@@H](OC(=O)/C=C/c4ccccc4)[C@@]4(C)[C@]5(O)CC[C@@]4(O)C(C)=O)C3)O[C@@H]2C)O[C@@H](C)[C@H]1O[C@H]1C[C@H](OC)[C@H](O[C@H]2C[C@@H](OC)[C@@H](O[C@@H]3O[C@H](CO)[C@@H](O)[C@H](O)[C@H]3O)[C@H](C)O2)[C@@H](C)O1 [Cynauricuoside A, cynauricuoside A]	9.2 g	10.8 g	9.2 g	15.2 g	13.6 g	13.2 g	13.6 g	greatly less than those in the blank control group	12.4 g	14.4 g	13.6 g	14 g	13.6 g	11.2 g	14 g	158.8 g	156.4 g	153.6 g	156.8 g	158.4 g	Average body weight [2, 5]: 164.4 g; Average body weight [2, 6]: 166.8 g; body weight compared with the blank control group (in words) [2]: the tendency of body weight change was greatly different; Average body weight [2, 7]: 163.6 g; Average body weight [2, 8]: 160.4 g; Average body weight [2, 9]: 158 g; Average body weight [2, 10]: 156 g; Average body weight [2, 11]: 154.4 g; Average body weight [2, 12]: 152.8 g; Average body weight [2, 13]: 150 g
